Read-outs that look alike come from different tables or passages of the source.
Test: in vitro
Format: in vitro ADME
Details: human
Procedure, shortened: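 Caco-2 monolayers cultured 19 days on inserts (TEER >600 […]); bidirectional A-to-B and B-to-A transport at 37° C over 90 min, samples quantified by LC/MS/MS. Papp, efflux ratio and recovery calculated; ER >2 flags potential efflux substrates.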

[1] = Caco-2 monolayer, apical to basolateral, 90-minute incubation, read-out: Papp, A-B
[2] = Caco-2 monolayer, basolateral to apical, 90-minute incubation, read-out: Papp, B-A
[3] = Caco-2 monolayer, ER>2 indicates potential efflux transporter substrate, read-out: ER (efflux ratio)

SMILES: CC(C)(C)C(=O)OCO[C@H]1[C@@H](O)[C@](C#N)(c2ccc3c(N)ncnn23)O[C@@H]1COC(=O)CC1CCCCC1 [Compound 32, (((2R,3S,4R,5R)-5-(4-aminopyrrolo[2,1-f][1,2,4]triazin-7-yl)-5-cyano-2-((2-cyclohexylacetoxy)methyl)-4-hydroxytetrahydrofuran-3-yl)oxy)methyl pivalate]
- Papp A→B at 90 min (Caco-2): 6.9 ×10⁻⁶ cm/s
- Papp B→A at 90 min (Caco-2): 5.5 ×10⁻⁶ cm/s
- efflux ratio at 90 min (Caco-2): 0.8

SMILES: CCC(=O)OC[C@H]1O[C@@](C#N)(c2ccc3c(N)ncnn23)[C@H](O)[C@@H]1OC(=O)CC [Compound 71]
- Papp A→B at 90 min [1]: 0.94 ×10⁻⁶ cm/s
- Papp B→A at 90 min [2]: 2.3 ×10⁻⁶ cm/s
- efflux ratio at 90 min [3]: 2.4

SMILES: CC(=O)OCOC(=O)Nc1ncnn2c([C@]3(C#N)O[C@H](COC(=O)Cc4ccccc4)[C@@H](OC(=O)[C@@H](N)C(C)C)[C@H]3O)ccc12 [Compound 355, (2R,3S,4R,5R)-5-(4-(((acetoxymethoxy)carbonyl)amino)pyrrolo[2,1-f][1,2,4]triazin-7-yl)-5-cyano-4-hydroxy-2-((2-phenylacetoxy)methyl)tetrahydrofuran-3-yl L-valinate]
- Papp A→B at 90 min [1]: 1.5 ×10⁻⁶ cm/s
- Papp B→A at 90 min [2]: 0.49 ×10⁻⁶ cm/s
- efflux ratio at 90 min [3]: 0.33

SMILES: CCCC(=O)Nc1ncnn2c([C@]3(C#N)O[C@H](COC(=O)CC4CCCCC4)[C@@H](OC(=O)[C@@H](N)C(C)C)[C@H]3O)ccc12 [Compound 350, (2R,3S,4R,5R)-5-(4-butyramidopyrrolo[2,1-f][1,2,4]triazin-7-yl)-5-cyano-2-((2-cyclohexylacetoxy)methyl)-4-hydroxytetrahydrofuran-3-yl L-valinate]
- Papp A→B at 90 min (Caco-2): 1.9 ×10⁻⁶ cm/s
- Papp B→A at 90 min (Caco-2): 6.9 ×10⁻⁶ cm/s
- efflux ratio at 90 min (Caco-2): 4.3

SMILES: N#C[C@@]1(c2ccc3c(N)ncnn23)O[C@H](COC(=O)CC2CCC(C(F)(F)F)CC2)[C@@H](OC(=O)CC2CCC(C(F)(F)F)CC2)[C@H]1O (stereo partly drawn) [Compound 271, (2R,3S,4R,5R)-5-(4-aminopyrrolo[2,1-f][1,2,4]triazin-7-yl)-5-cyano-4-hydroxy-2-((2-(4-(trifluoromethyl)cyclohexyl)acetoxy)methyl)tetrahydrofuran-3-yl 2-(4-(trifluoromethyl)cyclohexyl)acetate]
- Papp A→B at 90 min (Caco-2): 0.06 ×10⁻⁶ cm/s
- Papp B→A at 90 min (Caco-2): 0.52 ×10⁻⁶ cm/s
- efflux ratio at 90 min (Caco-2): 8.7

SMILES: CCCCCCCCCCCCCCCCCCOCCOP(=O)(O)OC[C@H]1O[C@@H](n2cnc3c(NC)nc(N)nc32)[C@](C)(F)[C@@H]1O [Compound 254, ((2R,3R,4R,5R)-5-(2-amino-6-(methylamino)-9H-purin-9-yl)-4-fluoro-3-hydroxy-4-methyltetrahydrofuran-2-yl)methyl (2-(octadecyloxy)ethyl) hydrogen phosphate]
- Papp A→B at 90 min (Caco-2): 2.2 ×10⁻⁶ cm/s
- Papp B→A at 90 min (Caco-2): 1.7 ×10⁻⁶ cm/s
- efflux ratio at 90 min (Caco-2): 0.8

SMILES: CNc1nc(NC(=O)CC(C)C)nc2c1ncn2[C@@H]1O[C@H](COC(C)=O)[C@@H](OC(=O)CC(C)C)[C@@]1(C)F [Compound 332, (2R,3R,4R,5R)-2-(acetoxymethyl)-4-fluoro-4-methyl-5-(6-(methylamino)-2-(3-methylbutanamido)-9H-purin-9-yl)tetrahydrofuran-3-yl 3-methylbutanoate]
- Papp A→B at 90 min (Caco-2): 11 ×10⁻⁶ cm/s
- Papp B→A at 90 min (Caco-2): 2.6 ×10⁻⁶ cm/s
- efflux ratio at 90 min (Caco-2): 0.22

SMILES: CC(C)C(=O)OC[C@H]1O[C@@](C#N)(c2ccc3c(N)ncnn23)[C@H](O)[C@@H]1OC(=O)C(C)C [Compound 62, (2R,3S,4R,5R)-5-(4-aminopyrrolo[2,1-f][1,2,4]triazin-7-yl)-5-cyano-4-hydroxy-2-((isobutyryloxy)methyl)tetrahydrofuran-3-yl isobutyrate]
- Papp A→B at 90 min (Caco-2): 3 ×10⁻⁶ cm/s
- Papp B→A at 90 min (Caco-2): 2.4 ×10⁻⁶ cm/s
- efflux ratio at 90 min (Caco-2): 0.8

SMILES: CC(C)(C)C(=O)OCOC(=O)Nc1ncnn2c([C@]3(C#N)O[C@H](COC(=O)CC4(N)CCCCC4)[C@@H](O)[C@H]3O)ccc12 [Compound 367, (((7-((2R,3R,4S,5R)-5-((2-(1-aminocyclohexyl)acetoxy)methyl)-2-cyano-3,4-dihydroxytetrahydrofuran-2-yl)pyrrolo[2,1-f][1,2,4]triazin-4-yl)carbamoyl)oxy)methyl pivalate]
- Papp A→B at 90 min (Caco-2): 2.8 ×10⁻⁶ cm/s
- Papp B→A at 90 min (Caco-2): 1.6 ×10⁻⁶ cm/s
- efflux ratio at 90 min (Caco-2): 0.57

SMILES: CCC(=O)OC[C@H]1O[C@@](C#N)(c2ccc3c(NC(=O)c4ccccc4)ncnn23)[C@H](O)[C@@H]1O [Compound 107, ((2R,3S,4R,5R)-5-(4-benzamidopyrrolo[2,1-f][1,2,4]triazin-7-yl)-5-cyano-3,4-dihydroxytetrahydrofuran-2-yl)methyl propionate]
- Papp A→B at 90 min [1]: 2.1 ×10⁻⁶ cm/s
- Papp B→A at 90 min [2]: 7.5 ×10⁻⁶ cm/s
- efflux ratio at 90 min [3]: 3.6

SMILES: CCCCC(=O)Nc1ncnn2c([C@]3(C#N)O[C@H](COC(=O)CC4CCCCC4)[C@@H](O)[C@H]3O)ccc12 [Compound 284, ((2R,3S,4R,5R)-5-cyano-3,4-dihydroxy-5-(4-pentanamidopyrrolo[2,1-f][1,2,4]triazin-7-yl)tetrahydrofuran-2-yl)methyl 2-cyclohexylacetate]
- Papp A→B at 90 min (Caco-2): 1.7 ×10⁻⁶ cm/s
- Papp B→A at 90 min (Caco-2): 0.95 ×10⁻⁶ cm/s
- efflux ratio at 90 min (Caco-2): 0.56

SMILES: CCCCC(=O)Nc1ncnn2c([C@]3(C#N)O[C@H](COC(=O)C(C)C)[C@@H](O)[C@H]3O)ccc12 [Compound 276, ((2R,3S,4R,5R)-5-cyano-3,4-dihydroxy-5-(4-pentanamidopyrrolo[2,1-f][1,2,4]triazin-7-yl)tetrahydrofuran-2-yl)methyl isobutyrate]
- Papp A→B at 90 min (Caco-2): 0.36 ×10⁻⁶ cm/s
- Papp B→A at 90 min (Caco-2): 2.9 ×10⁻⁶ cm/s
- efflux ratio at 90 min (Caco-2): 8

SMILES: CC(C)CC(=O)OC[C@H]1O[C@@](C#N)(c2ccc3c(N)ncnn23)[C@H](O)[C@@H]1OC(=O)CC(C)C [Compound 17, (2R,3S,4R,5R)-5-(4-aminopyrrolo[2,1-f][1,2,4]triazin-7-yl)-5-cyano-4-hydroxy-2-(((3-methylbutanoyl)oxy)methyl)tetrahydro furan-3-yl 3-methylbutanoate]
- Papp A→B at 90 min (Caco-2): 15 ×10⁻⁶ cm/s
- Papp B→A at 90 min (Caco-2): 21 ×10⁻⁶ cm/s
- efflux ratio at 90 min (Caco-2): 1.4

SMILES: CC(C)(C)[C@@H](N)C(=O)OC[C@H]1O[C@@](C#N)(c2ccc3c(N)ncnn23)[C@H](O)[C@@H]1OC(=O)CC1CCCCC1 [Compound 392]
- Papp A→B at 90 min (Caco-2): 5.6 ×10⁻⁶ cm/s
- Papp B→A at 90 min (Caco-2): 16.4 ×10⁻⁶ cm/s
- efflux ratio at 90 min (Caco-2): 3

SMILES: CC(C)[C@H](N)C(=O)O[C@H]1[C@@H](O)[C@](C#N)(c2ccc3c(NC(=O)OCOC(=O)C(C)(C)C)ncnn23)O[C@@H]1COC(=O)Cc1ccccc1 [Compound 360, (2R,3S,4R,5R)-5-cyano-4-hydroxy-2-((2-phenylacetoxy)methyl)-5-(4-((((pivaloyloxy)methoxy)carbonyl)amino)pyrrolo[2,1-f][1,2,4]triazin-7-yl)tetrahydrofuran-3-yl L-valinate]
- Papp A→B at 90 min [1]: 0.49 ×10⁻⁶ cm/s
- Papp B→A at 90 min [2]: 0.16 ×10⁻⁶ cm/s
- efflux ratio at 90 min [3]: 0.33

SMILES: CCC(=O)OC[C@H]1O[C@@](C#N)(c2ccc3c(NC(=O)[C@@H](N)C(C)C)ncnn23)[C@H](O)[C@@H]1O [Compound 115, ((2R,3S,4R,5R)-5-(4-((S)-2-amino-3-methylbutanamido)pyrrolo[2,1-f][1,2,4]triazin-7-yl)-5-cyano-3,4-dihydroxytetrahydrofuran-2-yl)methyl propionate]
- Papp A→B at 90 min (Caco-2): 0.04 ×10⁻⁶ cm/s
- Papp B→A at 90 min (Caco-2): 1.7 ×10⁻⁶ cm/s
- efflux ratio at 90 min (Caco-2): 47

SMILES: CNc1nc(N)nc2c1ncn2[C@@H]1O[C@H](COC(=O)Cc2ccccc2)[C@@H](OC(C)=O)[C@@]1(C)F [Compound 217, ((2R,3R,4R,5R)-3-acetoxy-5-(2-amino-6-(methylamino)-9H-purin-9-yl)-4-fluoro-4-methyltetrahydrofuran-2-yl)methyl 2-phenylacetate]
- Papp A→B at 90 min [1]: 14 ×10⁻⁶ cm/s
- Papp B→A at 90 min [2]: 6.1 ×10⁻⁶ cm/s
- efflux ratio at 90 min [3]: 0.45

SMILES: CC(C)C(=O)OC[C@H]1O[C@@](C#N)(c2ccc3c(N)ncnn23)[C@H](O)[C@@H]1O [Compound 14, ((2R,3S,4R,5R)-5-(4-aminopyrrolo[2,1-f][1,2,4]triazin-7-yl)-5-cyano-3,4-dihydroxytetrahydrofuran-2-yl)methyl isobutyrate]
- Papp A→B at 90 min (Caco-2): 2.3 ×10⁻⁶ cm/s
- Papp B→A at 90 min (Caco-2): 2.2 ×10⁻⁶ cm/s
- efflux ratio at 90 min (Caco-2): 1

SMILES: CC(C)[C@H](N)C(=O)OC[C@H]1O[C@@](C#N)(c2ccc3c(NC(=O)[C@@H](N)Cc4ccc(F)cc4)ncnn23)[C@H](O)[C@@H]1O [Compound 94, ((2R,3S,4R,5R)-5-(4-((S)-2-amino-3-(4-fluorophenyl)propanamido)pyrrolo[2,1-f][1,2,4]triazin-7-yl)-5-cyano-3,4-dihydroxytetrahydrofuran-2-yl)methyl L-valinate]
- Papp A→B at 90 min (Caco-2): 0.07 ×10⁻⁶ cm/s
- Papp B→A at 90 min (Caco-2): 0.64 ×10⁻⁶ cm/s
- efflux ratio at 90 min (Caco-2): 9.1

SMILES: CC(=O)OC[C@H]1O[C@@](C#N)(c2ccc3c(NC(=O)c4ccccc4)ncnn23)[C@H](O)[C@@H]1O [Compound 103, ((2R,3S,4R,5R)-5-(4-benzamidopyrrolo[2,1-f][1,2,4]triazin-7-yl)-5-cyano-3,4-dihydroxytetrahydrofuran-2-yl)methyl acetate]
- Papp A→B at 90 min (Caco-2): 1.5 ×10⁻⁶ cm/s
- Papp B→A at 90 min (Caco-2): 12 ×10⁻⁶ cm/s
- efflux ratio at 90 min (Caco-2): 8

SMILES: CC(C)(C)[C@@H](N)C(=O)OC[C@H]1O[C@@](C#N)(c2ccc3c(N)ncnn23)[C@H](O)[C@@H]1O [Compound 411, ((2R,3S,4R,5R)-5-(4-aminopyrrolo[2,1-f][1,2,4]triazin-7-yl)-5-cyano-3,4-dihydroxytetrahydrofuran-2-yl)methyl (R)-2-amino-3,3-dimethylbutanoate]
- Papp A→B at 90 min (Caco-2): 0.12 ×10⁻⁶ cm/s
- Papp B→A at 90 min (Caco-2): 2.5 ×10⁻⁶ cm/s
- efflux ratio at 90 min (Caco-2): 20.7

SMILES: CC(=O)OC[C@H]1O[C@@](C#N)(c2ccc3c(N)ncnn23)[C@H](O)[C@@H]1OC(=O)Cc1ccccc1 [Compound 52, (2R,3S,4R,5R)-2-(acetoxymethyl)-5-(4-aminopyrrolo[2,1-f][1,2,4]triazin-7-yl)-5-cyano-4-hydroxytetrahydrofuran-3-yl 2-phenylacetate]
- Papp A→B at 90 min [1]: 1.4 ×10⁻⁶ cm/s
- Papp B→A at 90 min [2]: 0.89 ×10⁻⁶ cm/s
- efflux ratio at 90 min [3]: 0.65

— US12102648B2, “Orally-bioavailable nucleoside analogs” (priority 2021, dated 2024)
